Experimental data taken from patent US11492347B2 (ENYO PHARMA, priority 2018, dated 2022).

Assays:
[1] = system: H1N1 (influenza A/New Caledonia/20/99); test: microbe, parasite or virus in culture; assay type: cell-based; settings: H1N1, A549, 48 h
[2] = target: T1, CISD1 Gene Product (mitoNEET) (Homo sapiens, UniProt Q9NZ45); test: Stability of Fe-S cluster binding of purified NEET protein (absorbance 458 nm); assay type: biochemical; settings: for Time (in minutes) to achieve 50% loss of bound cluster (Absorbance 458 nm) / Residual cluster bound at end of experiment (Percentage Absorbance 458 nm at time zero): mitoNEET 20 μM, compound 60 μM; for Time (in minutes) to achieve 50% loss of bound cluster (Absorbance 458 nm): pH 6, 37° C., run time 180 minutes, vehicle control 80; for Residual cluster bound at end of experiment (Percentage Absorbance 458 nm at time zero): pH 6, at 180 minutes, vehicle control 16%; for Stabiliser or destabiliser of Fe-S cluster binding by CISD1 Gene Product (mitoNEET): time to 50% cluster loss changed by more than 25% compared to the Control sample, at the concentrations tested
T1 sequence (Q9NZ45 33-108 limits assumed): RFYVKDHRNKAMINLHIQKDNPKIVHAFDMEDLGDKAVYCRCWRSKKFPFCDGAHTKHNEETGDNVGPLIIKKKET
Method: (§1) The modulator effect on the NEET proteins encoded by human CISD1, CISD2, and CISD3 genes by the compounds of the invention has been tested and is reported below. Particularly, the biochemical function of the NEET proteins is measured by the stability of Fe—S cluster binding of the purified NEET proteins.
(§2) The Fe—S cluster binding capacity of NEET proteins is known to be coordinated by four amino-acids in a stretch of 16 (three Cysteine and one Histidine). As the lability of the Fe—S cluster of NEET proteins is sensitive to the environment, cluster stability measurements are one of the measures of interactions of NEET proteins with small molecules and compounds. NEET protein/2Fe-2S cluster stability can be assessed by monitoring the decay in absorbance of its characteristic 458-nm peak (characteristic of the oxidized 2Fe-2S cluster) over time. Each NEET protein (mitoNEET, NAF-1 and Miner 2) was tested for its Fe—S binding in the absence or presence of a compound according to the invention (see table 4 below). The rate of cluster release (time in minutes to achieve 50% loss of bound Fe—S cluster) was compared for each NEET protein in the presence of one of the compounds of the invention (in a 1:3 protein:compound molar ratio) relative to each protein alone.
(§3) At pH 6, all the three NEET proteins (mitoNEET, NAF-1 and Miner 2) have a characteristic rate of loss of the bound Fe—S cluster that can be measured by the decrease of absorbance at wavelength 458 nm over time, using a spectrophotometer. Thus, Bis-Tris buffer (100 mM Bis-Tris pH6, 100 mM Nacl) was used at pH 6 to dilute either DMSO (Blank sample: Bis-Tris Buffer pH 6, 66 μM DMSO), DMSO and one of the three NEET proteins (Control sample: Bis-Tris Buffer pH 6, 66 μM DMSO, 20 μM purified NEET protein) or DMSO, one of the three NEET proteins and a compound of the invention (Test sample: Bis-Tris Buffer pH 6, 66 μM DMSO, 20 μM purified NEET protein, 60 μM compound of the invention).
(§4) A reaction mix containing DMSO diluted in the Bis-Tris Buffer with or without a compound of the invention was prepared. The purified NEET protein was the last component added to the reaction mix which was then aliquoted into 4 replicates in 96 wells plates. The absorbance at wavelength 458 nm was taken at 5 minutes intervals at 37° C. with a spectrofluorimeter. The assay run time for CISD2 gene product (NAF-1) was 500 minutes and 180 minutes for both the CISD1gene product (mitoNEET) and the CISD3 gene product (Miner2).
(§5) In addition to time monitoring, residual bound Fe—S cluster to NEET protein was measured at the final point of the spectrometry assay for each Test sample and compared to the Control sample data (in parenthesis table 4). This residual binding is measured by the differential percentage between the absorbance 458 nm at time zero and the absorbance 458 nm at the end of the experiment (i.e. respectively 500 or 180 minutes as described here above), showing the percentage of NEET protein still able to bind a Fe—S cluster.
(§6) Analysis of the absorbance enables the time for which 50% loss of bound Fe—S cluster is reached (i.e. a 50% absorbance decrease at 458 nm) for each Test sample and each Control sample (in parenthesis table 4) to be determined. The data are then compared to determine whether the compound of the invention stabilizes or destabilizes the NEET protein/Fe—S cluster binding.

[3] = target: T2, CISD2 Gene Product (NAF-1) (Homo sapiens, UniProt Q8N5K1); test: as above; assay type: biochemical; settings: for Time (in minutes) to achieve 50% loss of bound cluster (Absorbance 458 nm) / Residual cluster bound at end of experiment (Percentage Absorbance 458 nm at time zero): NAF-1 20 μM, compound 60 μM; for Time (in minutes) to achieve 50% loss of bound cluster (Absorbance 458 nm): pH 6, 37° C., run time 500 minutes, vehicle control 310 or 210; for Residual cluster bound at end of experiment (Percentage Absorbance 458 nm at time zero): pH 6, at 500 minutes, vehicle control 3%; for Stabiliser or destabiliser of Fe-S cluster binding by CISD2 Gene Product (NAF-1): time to 50% cluster loss changed by more than 25% compared to the Control sample, at the concentrations tested
T2 sequence (Q8N5K1 57-135 limits assumed): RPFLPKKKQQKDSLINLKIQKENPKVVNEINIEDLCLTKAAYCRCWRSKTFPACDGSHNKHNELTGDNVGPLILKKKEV
Method: as §1, §2, §3, §4, §5, §6

[4] = target: T3, CISD3 Gene Product (Miner2) (Homo sapiens, UniProt P0C7P0); test: as above; assay type: biochemical; settings: for Residual cluster bound at end of experiment (Percentage Absorbance 458 nm at time zero): CISD3 gene product 20 μM, pH 6, at 180 minutes, vehicle control 11%; for Residual cluster bound at end of experiment (Percentage Absorbance 458 nm at time zero) / Time (in minutes) to achieve 50% loss of bound cluster (Absorbance 458 nm): compound 60 μM; for Time (in minutes) to achieve 50% loss of bound cluster (Absorbance 458 nm): Miner2 20 μM, pH 6, 37° C., run time 180 minutes, vehicle control 60; for Stabiliser or destabiliser of Fe-S cluster binding by CISD3 Gene Product (Miner2): time to 50% cluster loss changed by more than 25% compared to the Control sample, at the concentrations tested
T3 sequence (P0C7P0 15-127): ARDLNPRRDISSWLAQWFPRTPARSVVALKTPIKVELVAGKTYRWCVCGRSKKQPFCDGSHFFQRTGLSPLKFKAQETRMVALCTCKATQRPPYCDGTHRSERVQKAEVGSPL
Method: as §1, §2, §3, §4, §5, §6

[5] = system: NFκB; test: NFκB reporter assay, TNFα stimulation of A549 NFκB-NanoLuciferase reporter cells; assay type: cell-based; settings: Homo sapiens, 4 ng/ml TNFα, NanoGlo luciferase assay 6 hours later
Description: Compounds of the present invention have been tested for their capacity to inhibit NFκB.
The NFκB reporter construct was made by cloning 5 NFκB responsive elements upstream of a NanoLuciferase reporter gene flanked by AAVS1 genomic sequences.
NFκB Responsive element fused with NanoLuciferase and SV40 late Poly(A) signal was amplified from pNL3.2-NFκB-Nluc (Promega) using NFKB-NLUC-F and NFKB-NLUC-R primers and inserted by Infusion (TaKaRa) in AAVS1 SA-2A-puro-pA donor plasmid (Hockemeyer et al, Nat Biotechnol. 2009, 27, 851-7) digested by Sal1. pCRISPR AAVS1-T2 expressing a guide RNA (gRNA) to target human AAVS1 (T2 target sequence) was constructed by inserting AAVS1-T2A hybridized primers in pLentiCRISPR v2-blast (Sanjana et al, Nat Methods. 2014, 11, 783-4) digested by Bsmbl.
A549 cells were transfected by the plasmids and puromycine selected for 5 days (1 μg mL-1). Then clones were obtained by limiting dilution and selected to maximize TNF dependent NFκB-NanoLuciferase induction.
The reporter cells were seeded on a 96-well plate for overnight with DMEM including 10% FBS. Test compounds were added at varying concentrations. The cells then were treated with 4 ng/ml TNFα (Peprotech, ref E251) in DMEM+10% FBS. NanoGlo luciferase assay (Promega) was carried out 6 hours later. Luminescence was measured using a Spark 20M spectrofluorimeter (Tecan). Values were normalized to the luminescence measured in untreated cells.

Compound | IC50 [1] [nM] | Time (in minutes) to achieve 50% loss of bound cluster (Absorbance 458 nm) [2] | Residual cluster bound at end of experiment (Percentage Absorbance 458 nm at time zero) [2] | Time (in minutes) to achieve 50% loss of bound cluster (Absorbance 458 nm) [3] | Residual cluster bound at end of experiment (Percentage Absorbance 458 nm at time zero) [3] | Stabiliser or destabiliser of Fe-S cluster binding by CISD2 Gene Product (NAF-1) [3] | Residual cluster bound at end of experiment (Percentage Absorbance 458 nm at time zero) [4] | Time (in minutes) to achieve 50% loss of bound cluster (Absorbance 458 nm) [4] | EC50 [5] [nM] | Stabiliser or destabiliser of Fe-S cluster binding by CISD3 Gene Product (Miner2) [4] | Stabiliser or destabiliser of Fe-S cluster binding by CISD1 Gene Product (mitoNEET) [2]
COC1CN(c2ccc(C(=O)Nc3sc4c(c3C(=O)O)CCC(C)(C)C4)cc2)C1 [Compound #147, 2-[[4-(3-Methoxyazetidin-1-yl)benzoyl]amino]-6,6-dimethyl-5,7-dihydro-4H-benzothiophene-3-carboxylic acid] | 11.1 | 75 (80) minutes | 11% (16%) | 85 (310) minutes | 5% (3%) | destabilisers | 10% (11%) | 60 (60) minutes | – | – | –
CC1(C)Cc2c(sc(NC(=O)c3ccccc3)c2C(=O)O)C(C)(C)C1 [Compound #33, 2-Benzamido-5,5,7,7-tetramethyl-4,6-dihydrobenzothiophene-3-carboxylic acid] | 34.6 | – | – | – | – | – | – | – | 400 | – | –
CC1(C)CCc2c(sc(NC(=O)c3ccccc3)c2C(=O)O)C1 [Compound #15, 2-Benzamido-6,6-dimethyl-5,7-dihydro-4H-benzothiophene-3-carboxylic acid] | 60 | – | – | – | – | – | – | – | 150 | – | –
CC1CC(C)(C)Cc2sc(NC(=O)c3ccc(NC4CCOCC4)cc3)c(C(=O)O)c21 (stereo not shown) [Compound #136, 4,6,6-Trimethyl-2-[[4-(tetrahydropyran-4-ylamino)benzoyl]amino]-5,7-dihydro-4H-benzothiophene-3-carboxylic acid] | 12 | 75 (80) minutes | 2% (16%) | 325 (310) minutes | 5% (3%) | – | 10% (11%) | 45 (60) minutes | – | Destabilisers | –
CC1(C)CCc2sc(NC(=O)c3ccc(NC4CCOCC4)cc3)c(C(=O)O)c21 [Compound #62, 4,4-Dimethyl-2-[[4-(tetrahydropyran-4-ylamino)benzoyl]amino]-5,6-dihydrocyclopenta[b]thiophene-3-carboxylic acid] | 50 | – | – | – | – | – | – | – | 380 | – | –
CN(c1ccc(C(=O)Nc2sc3c(c2C(=O)O)CC(C)(C)CC3(C)C)cc1)C1CCOCC1 [Compound #135, 5,5,7,7-Tetramethyl-2-[[4-[methyl(tetrahydropyran-4-yl)amino]benzoyl]amino]-4,6-dihydrobenzothiophene-3-carboxylic acid] | 6.1 | 100 (80) minutes | 24% (16%) | 160 (310) minutes | 16% (3%) | destabilisers | 20% (11%) | 80 min | – | Stabilisers | stabilisers
COc1ccc(C(=O)Nc2sc3c(c2C(=O)O)CCC(C)(C)C3)cc1 [Compound #20, 2-[(4-Methoxybenzoyl)amino]-6,6-dimethyl-5,7-dihydro-4H-benzothiophene-3-carboxylic acid] | 74 | 65 (80) minutes | 0% (16%) | 300 (310) minutes | 4% (3%) | – | 9% (11%) | 35 (60) minutes | – | Destabilisers | –
COc1ccc(C(=O)Nc2sc3c(c2C(=O)O)CCC(C)(C)C3)c(F)c1 [Compound #16, 2-[(2-Fluoro-4-methoxybenzoyl)amino]-6,6-dimethyl-5,7-dihydro-4H-benzothiophene-3-carboxylic acid] | 43.8 | – | – | – | – | – | – | – | 150 | – | –
CC1(C)Cc2c(sc(NC(=O)c3ccc(Br)cc3)c2C(=O)O)C(C)(C)C1 [Compound #138, 2-[(4-Bromobenzoyl)amino]-5,5,7,7-tetramethyl-4,6-dihydrobenzothiophene-3-carboxylic acid] | 8.8 | – | 53% (16%) | 435 (210) minutes | 30% (3%) | Stabilisers | 66% (11%) | – | – | Stabilisers | stabilisers
CC1(C)CCc2sc(NC(=O)c3ccc(NCC4CCOCC4)cc3)c(C(=O)O)c2C1 [#164, 5,5-Dimethyl-2-[[4-(tetrahydropyran-4-ylmethylamino)benzoyl]amino]-6,7-dihydro-4H-benzothiophene-3-carboxylic acid] | 16 | – | – | – | – | – | – | – | 90 | – | –
